What all share (assay): microbe, parasite or virus in culture
What all share (format): cell-based, Hepatitis C virus (HCV)

One assay relates to HCV replicon 1A. The note with it: HCV replicon 1A, Replicon Assay A. In short, it runs like this: (§1)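 Compound is added to replicon cells plated at 2000 cells/well (0.5% DMSO, 5% FBS). After 3 days the cells are washed and lysed, and HCV RNA and cyclophilin mRNA are quantified by multiplex RT-PCR against a standard curve of known replicon total RNA.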
A further assay has as its system HCV replicon 2B. Conditions: read-out: 2B IC50; HCV replicon 2B; Replicon Assay A. The method, boiled down:
as §1
On the technique in general: In antiviral work, replicon cells carry a viral genome segment that copies itself.

For a further assay, the system named is HCV replicon 1AY93H. The note with it: Replicon Assay A. The method, boiled down: as §1
Setting [1] is: read-out: 1A Y93H IC50, HCV replicon 1A Y93H.
[2] abbreviates: Hepatitis C virus, read-out: 1A Y93H IC50, HCV replicon 1A Y93H.

Read-outs that look alike come from different tables or passages of the source.

A word on the IC50: it is the concentration that inhibits the measured activity by half. Turning to `COC(=O)N[C@H](C(=O)N1C2CC2C[C@H]1c1ncc(-c2cc(F)c3c(c2)OC(c2ccc(C4CC4)s2)n2c-3cc3cc(-c4cnc([C@@H]5CCCN5C(=O)[C@@H](NC(=O)OC)C5C[C@@H](C)O[C@@H](C)C5)[nH]4)ccc32)[nH]1)C(C)C` (single isomer, unassigned) [Compound 555], the IC50 was 0.00239 nM in the assay with HCV replicon 1A, 0.197 nM with HCV replicon 2B and 0.105 nM in the assay with HCV replicon 1AY93H (setting [1]).

As for `COC(=O)N[C@H](C(=O)N1C2CC2C[C@H]1c1ncc(-c2cc(F)c3c(c2)OC(c2ccc(C4CC4)s2)n2c-3cc3cc(-c4cnc([C@@H]5CCCN5C(=O)[C@@H](NC(=O)OC)C5C[C@@H](C)O[C@@H](C)C5)[nH]4)ccc32)[nH]1)C(C)C` (single isomer, unassigned) [Compound 556], the IC50 is 0.0512 nM in the assay with HCV replicon 1A, 0.976 nM in the assay with HCV replicon 2B and 0.251 nM in the assay with HCV replicon 1AY93H (setting [1]).

In the case of `CCc1ccc(C2Oc3cc(-c4cnc([C@@H]5CCCN5C(=O)[C@@H](NC(=O)OC)C(C)C)[nH]4)ccc3-c3c(F)c4cc(-c5cnc([C@@H]6CCCN6C(=O)[C@@H](NC(=O)OC)C(C)C)[nH]5)ccc4n32)s1` (single isomer, unassigned) [Compound 603], the half-maximal inhibitory concentration (IC50) amounted to 0.0032 nM in the assay on HCV replicon 1A, 0.496 nM in the assay on HCV replicon 2B and 0.183 nM in the assay on HCV replicon 1AY93H (setting [1]).

Turning to `COC(=O)N[C@H](C(=O)N1CCC[C@H]1c1ncc(-c2ccc3c(c2)OC(c2cc4ccccc4s2)n2c-3cc3cc(-c4cnc([C@@H]5C[C@H]6C[C@H]6N5C(=O)[C@@H](NC(=O)OC)C(C)C)[nH]4)ccc32)[nH]1)C(C)C` (single isomer, unassigned) [Compound 608], the IC50 with HCV replicon 1A was 0.0035 nM; in the assay on HCV replicon 2B, 0.031 nM; with HCV replicon 1AY93H (setting [1]), 0.0529 nM.

With `COC(=O)N[C@H](C(=O)N1CCC[C@H]1c1ncc(-c2ccc3c(c2)OC(c2cc4ccccc4s2)n2c-3cc3cc(-c4cnc([C@@H]5C[C@H]6C[C@H]6N5C(=O)[C@@H](NC(=O)OC)C(C)C)[nH]4)ccc32)[nH]1)C(C)C` (single isomer, unassigned) [Compound 609], the IC50 in the assay on HCV replicon 1A was determined as 0.0074 nM; in the assay with HCV replicon 2B, 0.995 nM; with HCV replicon 1AY93H (setting [1]), 18 nM.

As for `COC(=O)N[C@H](C(=O)N1CCC[C@H]1c1ncc(-c2ccc3c(c2)OC(c2cc4ccccc4s2)n2c-3cc3cc(-c4cnc([C@@H]5C[C@H]6C[C@H]6N5C(=O)[C@@H](NC(=O)OC)C(C)C)[nH]4)ccc32)[nH]1)C(C)C` (single isomer, unassigned) [Compound 610], the IC50 was 0.0124 nM in the assay on HCV replicon 1A, 0.272 nM with HCV replicon 2B and 0.453 nM in the assay with HCV replicon 1AY93H (setting [1]).

Consider `COC(=O)N[C@H](C(=O)N1CCC[C@H]1c1ncc(-c2ccc3c(c2)OC(c2ccc(C4CC4)s2)n2c-3c(F)c3cc(-c4cnc([C@@H]5C[C@H]6C[C@H]6N5C(=O)[C@@H](NC(=O)OC)C(C)C)[nH]4)ccc32)[nH]1)C(C)C` (single isomer, unassigned) [Compound 612], for which the IC50 in the assay with HCV replicon 1A turned out to be 0.0016 nM; with HCV replicon 2B, 2.21 nM; in the assay with HCV replicon 1AY93H (setting [1]), 0.469 nM.

As for `COC(=O)N[C@H](C(=O)N1CCC[C@H]1c1ncc(-c2cc(F)c3c(c2)OC(c2cc4c(s2)CCC4)n2c-3cc3cc(-c4cnc([C@@H]5CCCN5C(=O)[C@@H](NC(=O)OC)C5CCOCC5)[nH]4)ccc32)[nH]1)C(C)C` (single isomer, unassigned) [Compound 621], the half-maximal inhibitory concentration (IC50) came out at 0.0031 nM in the assay on HCV replicon 1A, 0.835 nM with HCV replicon 2B and 0.108 nM in the assay on HCV replicon 1AY93H (setting [1]).

`COC(=O)N[C@H](C(=O)N1C[C@H](F)C[C@H]1c1ncc(-c2ccc3c(c2)cc2n3C(c3cc4ccccc4s3)Oc3cc(-c4cnc([C@@H]5CCCN5C(=O)[C@@H](NC(=O)OC)C5CCOCC5)[nH]4)ccc3-2)[nH]1)C(C)C` (single isomer, unassigned) [Compound 623]: the half-inhibitory concentration (IC50) was 0.0024 nM in the assay with HCV replicon 1A (Hepatitis C virus), 0.345 nM in the assay with HCV replicon 2B and 0.0213 nM in the assay with HCV replicon 1AY93H (setting [1]).

Regarding `COC(=O)N[C@H](C(=O)N1C[C@H](F)C[C@H]1c1ncc(-c2ccc3c(c2)cc2n3C(c3cc4ccccc4s3)Oc3cc(-c4cnc([C@@H]5CCCN5C(=O)[C@@H](NC(=O)OC)C5CCOCC5)[nH]4)ccc3-2)[nH]1)C(C)C` (single isomer, unassigned) [Compound 624], the IC50 came to 0.0021 nM in the assay with HCV replicon 1A, 0.418 nM with HCV replicon 2B and 0.494 nM in the assay on HCV replicon 1AY93H (setting [1]).

`COC(=O)N[C@H](C(=O)N1CCC[C@H]1c1ncc(-c2ccc3c(c2)OC(c2cc4ccccc4s2)n2c-3cc3cc(-c4cnc([C@@H]5C[C@@H](F)CN5C(=O)[C@@H](NC(=O)OC)C5CCOCC5)[nH]4)ccc32)[nH]1)C(C)C` (single isomer, unassigned) [Compound 626]: the IC50 in the assay on HCV replicon 1A (Hepatitis C virus) turned out to be 0.00209 nM; in the assay on HCV replicon 2B it was 0.179 nM; in the assay with HCV replicon 1AY93H (setting [1]), 0.013 nM.

As for `COC(=O)N[C@H](C(=O)N1CCC[C@H]1c1ncc(-c2ccc3c(c2)OC(c2cc4ccccc4s2)n2c-3cc3cc(-c4cnc([C@@H]5C[C@@H](F)CN5C(=O)[C@@H](NC(=O)OC)C5CCOCC5)[nH]4)ccc32)[nH]1)C(C)C` (single isomer, unassigned) [Compound 627], the concentration for half-maximal inhibition (IC50) with HCV replicon 1A is 0.00302 nM; in the assay with HCV replicon 2B it was 0.631 nM; in the assay with HCV replicon 1AY93H (setting [1]) it was 0.0157 nM.

In the case of `COC(=O)N[C@H](C(=O)N1CCC[C@H]1c1ncc(-c2ccc3c(c2)OC(c2cc4ccccc4s2)n2c-3cc3cc(-c4cnc([C@@H]5C[C@@H](F)CN5C(=O)[C@@H](NC(=O)OC)C5CCOCC5)[nH]4)ccc32)[nH]1)C(C)C` (single isomer, unassigned) [Compound 628], the IC50 in the assay with HCV replicon 1A is 0.00314 nM; in the assay with HCV replicon 2B, 0.922 nM; with HCV replicon 1AY93H (setting [1]), 0.357 nM.

Take `CCc1ccc(C2Oc3cc(-c4cnc([C@@H]5CCCN5C(=O)[C@@H](NC(=O)OC)C(C)C)[nH]4)ccc3-c3c(F)c4cc(-c5cnc([C@@H]6CCCN6C(=O)C(NC(=O)OC)C6C[C@@H](C)O[C@@H](C)C6)[nH]5)ccc4n32)s1` (single isomer, unassigned) [Compound 633]: the IC50 is 0.0013 nM with HCV replicon 1A (Hepatitis C virus), 0.311 nM in the assay with HCV replicon 2B and 0.306 nM in the assay on HCV replicon 1AY93H (setting [1]).

Regarding `COC(=O)NC(C(=O)N1CCC[C@H]1c1ncc(-c2ccc3c(c2)cc2n3C(c3cc4ccccc4s3)Oc3cc(-c4cnc([C@@H]5CCCN5C(=O)[C@@H](NC(=O)OC)C(C)C)[nH]4)cc(F)c3-2)[nH]1)C1C[C@@H](C)O[C@@H](C)C1` (single isomer, unassigned) [Compound 642], the IC50 with HCV replicon 1A amounted to 0.0019 nM; in the assay with HCV replicon 2B it was 0.199 nM; in the assay with HCV replicon 1AY93H (setting [1]), 0.066 nM.

Regarding `COC(=O)NC(C(=O)N1[C@@H]2C[C@@H]2C[C@H]1c1ncc(-c2ccc3c(c2)c(F)c2n3C(c3ccc(C4CC4)s3)Oc3cc(-c4cnc([C@@H]5CCCN5C(=O)[C@@H](NC(=O)OC)C(C)C)[nH]4)ccc3-2)[nH]1)C1C[C@@H](C)O[C@@H](C)C1` (single isomer, unassigned) [Compound 643], the concentration for half-maximal inhibition (IC50) worked out at 0.0012 nM with HCV replicon 1A, 0.323 nM in the assay with HCV replicon 2B and 0.179 nM in the assay on HCV replicon 1AY93H (setting [1]).

Take `COC(=O)NC(C(=O)N1[C@@H]2C[C@@H]2C[C@H]1c1ncc(-c2ccc3c(c2)cc2n3C(c3cc4ccccc4s3)Oc3cc(-c4cnc([C@@H]5CCCN5C(=O)[C@@H](NC(=O)OC)C(C)C)[nH]4)cc(F)c3-2)[nH]1)C1C[C@@H](C)O[C@@H](C)C1` (single isomer, unassigned) [Compound 648]: the results for the IC50 with HCV replicon 1A, with HCV replicon 2B and with HCV replicon 1AY93H (setting [2]) were 0.0036 nM, 1.7 nM and 2.04 nM, respectively.

Regarding `COC(=O)N[C@H](C(=O)N1CCC[C@H]1c1ncc(-c2cc(F)c3c(c2)OC(c2ccc(C(F)(F)F)s2)n2c-3cc3cc(-c4cnc([C@@H]5CCCN5C(=O)[C@@H](NC(=O)OC)C5CCOCC5)[nH]4)ccc32)[nH]1)C(C)C` (single isomer, unassigned) [Compound 655], the IC50 was 0.0016 nM in the assay with HCV replicon 1A, 0.24 nM in the assay on HCV replicon 2B and 0.278 nM in the assay on HCV replicon 1AY93H (setting [1]).

For the molecule `COC(=O)N[C@H](C(=O)N1CCC[C@H]1c1nc(-c2ccc3c(c2)OC(c2ccc(C)s2)n2c-3cc3cc(-c4c[nH]c([C@@H]5NCCN5C(=O)[C@@H](NC(=O)OC)C(C)C)n4)ccc32)c[nH]1)C(C)C` (single isomer, unassigned) [Compound 700], the IC50 is 0.015 nM in the assay on HCV replicon 1A, 0.39 nM in the assay with HCV replicon 2B and 1.17 nM in the assay with HCV replicon 1AY93H (setting [1]).

With `COC(=O)N[C@H](C(=O)N1CCC[C@H]1c1nc(-c2ccc3c(c2)OC(c2ccc(C)s2)n2c-3cc3cc(-c4c[nH]c([C@@H]5NCCN5C(=O)[C@@H](NC(=O)OC)C(C)C)n4)ccc32)c[nH]1)C(C)C` (single isomer, unassigned) [Compound 701], the concentration for half-maximal inhibition (IC50) stood at 0.003 nM with HCV replicon 1A, 0.15 nM in the assay with HCV replicon 2B and 0.085 nM in the assay with HCV replicon 1AY93H (setting [1]).

Take `COC(=O)N[C@H](C(=O)N1CCC[C@H]1c1nc(-c2ccc3c(c2)OC(c2ccc(C)s2)n2c-3cc3cc(-c4c[nH]c([C@@H]5NCCN5C(=O)[C@@H](NC(=O)OC)C(C)C)n4)ccc32)c[nH]1)C(C)C` (single isomer, unassigned) [Compound 702]: the IC50 in the assay on HCV replicon 1A was found to be 0.0074 nM; with HCV replicon 2B it was 3.98 nM; in the assay on HCV replicon 1AY93H (setting [1]), 3.85 nM.

Turning to `COC(=O)N[C@H](C(=O)N1CCC[C@H]1c1ncc(-c2ccc3c(c2)OC(c2ccc(C4CC4)s2)n2c-3cc3cc(-c4cnc([C@@H]5CCCN5C(=O)[C@@H](NC(=O)OC)C(C)C)[nH]4)ccc32)[nH]1)C(C)C` (single isomer, unassigned) [Compound 703], the figures for the half-inhibitory concentration (IC50) with HCV replicon 1A, in the assay on HCV replicon 2B and with HCV replicon 1AY93H (setting [2]) were 0.03 nM, 0.12 nM and 0.26 nM, respectively.

Turning to `COC(=O)N[C@H](C(=O)N1C[C@H](F)C[C@H]1c1ncc(-c2ccc3c(c2)OC(c2ccc(C)s2)n2c-3cc3cc(-c4cnc([C@@H]5C[C@H]6C[C@H]6N5C(=O)[C@@H](NC(=O)OC)C(C)C)[nH]4)ccc32)[nH]1)C(C)C` (single isomer, unassigned) [Compound 706], the IC50 stood at 0.023 nM with HCV replicon 1A, 4.61 nM in the assay with HCV replicon 2B and 2.45 nM in the assay with HCV replicon 1AY93H (setting [1]).
